Experimental data published in ChEMBL document CHEMBL1127283, “Structure of maesaquinone” (Bioorg Med Chem Lett, 1994).
≈ marks a conversion by molar mass, not a printed value.

Tests used:
[1] = test system: HeLa; assay: Compound was tested for its cytotoxicity against HeLa epithelioid cervix carcinoma cells.; type: functional, cell-based; settings: Homo sapiens
[2] = test system: BT-20; assay: Compound was tested for its cytotoxicity against BT-20 breast carcinoma cells; type: functional, cell-based; settings: Homo sapiens
[3] = target: T1, Polyunsaturated fatty acid 5-lipoxygenase (Homo sapiens) (UniProt P09917); assay: Compound was tested for its inhibitory activity against 5-lipoxygenase
T1 sequence (whole entry): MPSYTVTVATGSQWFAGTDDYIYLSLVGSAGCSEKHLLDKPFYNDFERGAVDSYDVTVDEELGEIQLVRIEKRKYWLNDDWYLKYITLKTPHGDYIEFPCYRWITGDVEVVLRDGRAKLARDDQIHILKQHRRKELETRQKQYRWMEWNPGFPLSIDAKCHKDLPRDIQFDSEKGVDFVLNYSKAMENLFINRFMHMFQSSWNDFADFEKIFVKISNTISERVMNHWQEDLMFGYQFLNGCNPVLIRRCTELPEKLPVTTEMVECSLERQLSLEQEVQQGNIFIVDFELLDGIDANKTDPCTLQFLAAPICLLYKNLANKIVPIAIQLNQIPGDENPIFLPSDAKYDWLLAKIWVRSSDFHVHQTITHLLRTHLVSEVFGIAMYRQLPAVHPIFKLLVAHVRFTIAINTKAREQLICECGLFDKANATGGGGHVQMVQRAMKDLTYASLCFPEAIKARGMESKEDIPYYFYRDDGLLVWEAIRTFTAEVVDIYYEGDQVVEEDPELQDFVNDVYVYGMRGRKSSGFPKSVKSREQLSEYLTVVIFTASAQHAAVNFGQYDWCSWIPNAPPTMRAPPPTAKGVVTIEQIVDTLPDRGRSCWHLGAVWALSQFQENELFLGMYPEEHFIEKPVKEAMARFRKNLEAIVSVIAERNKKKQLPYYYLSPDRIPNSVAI

[4] = test system: HeLa; assay: Compound was tested for its cytotoxicity against HeLa epithelioid cervix carcinoma cells; type: functional, cell-based; settings: Homo sapiens

IC90 [3]	Compound	IC50 [1]	IC50 [2]	IC50 [4]
3000 nM	CCCC/C=C\CCCCCCCCCC1=C(O)C(OC)=CC(=O)C1=O	1.25 µg/mL (≈ 3.45 µM)	1.8 µg/mL (≈ 4.97 µM)	
	CCCC/C=C\CCCCCCCCCC1=C(O)C(O)=C(C)C(=O)C1=O		1.58 µg/mL (≈ 4.36 µM)	2.05 µg/mL (≈ 5.66 µM)
